{"source": "patent US8299097B2", "about": "“Methods for treating inflammatory disorders” (The Brigham and Women's Hospital, Inc., priority 2008, dated 2012)", "key": {"P2Y12 receptors": {"target": "P2Y12 receptors (Mus musculus, UniProt Q9CPV9)", "sequence (Q9CPV9 whole entry)": "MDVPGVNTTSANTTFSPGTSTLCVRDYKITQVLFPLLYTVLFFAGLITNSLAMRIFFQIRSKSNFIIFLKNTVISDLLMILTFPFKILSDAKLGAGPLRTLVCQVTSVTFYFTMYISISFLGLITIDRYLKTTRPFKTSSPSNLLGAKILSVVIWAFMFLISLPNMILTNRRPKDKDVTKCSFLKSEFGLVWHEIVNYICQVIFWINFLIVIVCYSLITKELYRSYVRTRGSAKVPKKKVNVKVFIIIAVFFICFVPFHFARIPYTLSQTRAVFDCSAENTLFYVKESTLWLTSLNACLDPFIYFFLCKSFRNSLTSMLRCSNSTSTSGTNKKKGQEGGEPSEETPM", "assay": "Clopidogrel effect on LTE4-mediated amplification of OVA-induced pulmonary inflammation", "assay_type": "in vivo", "set-up": "from tissue; host or cells: whole animal: BALB/c (OVA model) and C57BL/6 (Der f model) mice", "settings": "whole lung RNA 24 h after last OVA challenge", "method": "FIG. 4. […] 4A. […] Clopidogrel (500 μg/ml) was added to the drinking water of the indicated groups of mice for 72 h before the first intranasal dose of LTs, and was maintained throughout the treatment. Results are mean±SEM from at least 9 mice in each group. The experiments were repeated three times with similar results. 4B. PAS stains (left column) from representative mice in the indicated groups showing the effect of clopidigrel on goblet cell metaplasia. Higher magnification images of H & E stains (right) from the same animals showing cellular characteristics of the bronchovascular infiltrates. 4C. Effect of clopidogrel administration on the steady-state expression of IL-13 and MUC5AC mRNA as determined by real-time PCR of whole lung RNA extracted 24 h after the last OVA challenge of the indicated groups. Data are mean±SEM from 4-5 mice/group from a single experiment. Results in a second experiment were similar 4D-4F. […] 4D. Total cell numbers (top), percentages of eosinophils (middle), and total numbers of eosinophils in BAL fluid recovered 24 h after the last challenge with OVA. 4E. Goblet cell metaplasia (top) and representative PAS stains (bottom) from wild-type and p2ry12^−/− mice subjected to the same protocol. 4E. Inflammation scores from the same mice. Data in 4D-4F are from 4 mice per group. Results in a second experiment were similar 4G. BALB/c Cysltr1/Cysltr2^−/− mice and age-matched WT controls were subjected to the same protocol as the p2ry12^−/− mice. Total cell numbers (top), percentages of eosinophils (middle), and total numbers of eosinophils in BAL fluid recovered 24 h after the last challenge with OVA. Results are from 6 mice per group. Three experiments were performed with similar results. 4H. Goblet cell numbers (top) and representative PAS stains (bottom). 4I. Quantitative assessment of bronchovascular inflammation as determined by H & E stains. Results are from 6 mice/group.\nFIG. 5. Effect of clopidogrel on LTE4-mediated amplification of pulmonary inflammation. 5A. […] The indicated mice were treated with clopidogrel for 72 h before the first dose of leukotriene. Results are mean±SEM from a minimum of 9 mice in each group. 5B. PAS stains (left column) from representative mice in the indicated groups showing the effect of clopidigrel on goblet cell metaplasia. Higher magnification images of H & E stains (right) from the same animals showing cellular characteristics of the bronchovascular infiltrates. 5C. Effect of clopidogrel administration on the steady-state expression of IL-13 and MUC5AC mRNA as determined by real-time PCR of whole lung RNA extracted 24 h after the last OVA challenge of the indicated groups. Data are mean±SEM from 4-5 mice/group. […]"}, "human blood platelets": {"tested_on": "human blood platelets", "assay": "Platelet activation, cytofluorographic detection of P-selectin (CD62P)", "assay_type": "cell-based", "settings": "ADP 100 μM or LTE4 1 μM, 10 min", "method": "FIG. 6. […] Each antibody (Ab) was diluted in 50 μl of sterile saline. […] 6A. PAS stains of the lungs of representative mice treated with isotype control (top) or with an anti-CD42 platelet-depleting antibody (bottom). 6B. Inflammation (top) and goblet cell metaplasia (bottom) in the lungs of mice treated with the indicated LT and antibody. A cohort of mice was treated with clopidogrel as indicated. Results in 6B are from a single experiment with 5 mice per group. […] 6C. […] Results are from a single experiment performed three times on different donors.\nPlatelets accumulate in the lungs of asthmatic individuals (Jeffery, P. K., et al. 1989. Am. Rev. Respir. Dis. 140:1745-1753), and are also recruited to the lungs of ovalbumin sensitized and challenged mice by an IgE-dependent mechanism (Pitchford, S. C., et al. 2008. Am. J. Respir. Crit. Care Med. 177:604-612)."}, "LAD2 cells": {"tested_on": "LAD2 cells", "assay": "Calcium flux of LAD2 cells stimulated with LTD4 or LTE4", "assay_type": "cell-based, human", "settings": "agonists 500 nM; MK571 1 μM, 2-MesAMP 100 μM", "method": "FIG. 2. Requirement for P2Y12 receptors in LTE4-mediated LAD2 cell activation. 2A. Calcium flux of LAD2 cells stimulated with the indicated agonists (500 nM) in the presence or absence of the P2Y12 receptor-selective antagonist 2-MeSAMP (100 μM). […] 2B. […] Cells sensitized overnight with IgE and challenged with anti-IgE were used as the positive control. 2C. […] Results in 2B and 2C are mean±SEM from three independent experiments each. 2D. Effect of shRNA-mediated knockdown of P2Y12 receptor mRNA expression by LAD2 cells.\nPre-treatment of the LAD2 cells with 2-MesAMP blocked the LTE4-mediated increment in MIP-1β production by >50% (FIG. 2B). […] To exclude potential off-target effects of the inhibitors, samples of LAD2 cells were transfected with lentiviruses encoding a P2Y12 sequence-specific shRNA, a CysLT1R-specific shRNA, or an empty vector control before stimulation. […] LTE4- and LTD4-dependent production of PGD2 were abrogated by the knockdowns of P2Y12 and CysLT1R, respectively (FIG. 2C, bottom). Neither GPCR knockdown altered MIP-1β generation or PGD2 production in response to IgE-anti-IgE (FIG. 2C). LTE4-mediated MIP-1β generation (FIG. 9A) and ERK activation (FIG. 9B) were not altered by treatment of LAD2 cells with apyrase to degrade extracellular ADP.\nLAD2 cells (0.5-1×10^6/sample) were washed and labeled with fura 2-AM for 30 min at 37° C. […]"}}}
{"smiles": "CCCCC/C=C\\C\\C=C/C=C/C=C/[C@@H](SC[C@H](N)C(=O)O)[C@@H](O)CCCC(=O)O", "note": "[LTE4]", "values": [{"measurement": "lung expression of IL-13 and MUC5AC mRNA (real-time PCR)", "setting": "P2Y12 receptors", "result": "tended to increase the expression of both transcripts"}, {"measurement": "CD62P expression by platelets", "setting": "human blood platelets", "result": "no CD62P expression was detected"}]}
{"smiles": "CN(C)C(=O)CCSC(SCCC(=O)O)c1cccc(/C=C/c2ccc3ccc(Cl)cc3n2)c1", "note": "(stereo not drawn) [MK571]", "values": [{"measurement": "effect on LTD4- or LTE4-mediated calcium flux", "setting": "LAD2 cells", "result": "blocked calcium responses"}]}
